Test results as given in US20230086865A1, “ANTI-INFECTIVE BICYCLIC PEPTIDE CONJUGATES” (priority 2020, published 2023).
Values after ≈ are worked out from the molar mass of the structure shown.

Legend:
P. mirabilis ATCC 43071 = experiment: MIC follow-on study; conditions: Proteus mirabilis, ATCC43071
E. coli ATCC25922 = experiment: Minimum inhibitory concentration (MIC) assay; conditions: Escherichia coli
C. freundii B121 = experiment: MIC follow-on study; conditions: Citrobacter freundii
E. coli UTI89 = experiment: MIC follow-on study; conditions: Escherichia coli
A. baumannii NCTC 12156 = experiment: MIC follow-on study; conditions: Acinetobacter baumannii, NCTC12156
K. pneumoniae ATCC 43816 = experiment: MIC follow-on study; conditions: Klebsiella pneumoniae, ATCC43816
E. cloacae B173 = experiment: MIC follow-on study; conditions: Enterobacter cloacae
P. mirabilis AR159 = experiment: MIC follow-on study; assay type: cell-based; conditions: Proteus mirabilis
Method: (§1) Minimum inhibitory concentration (MIC) assays were carried out using E. coli strains: GKCW101; GKCW102 and ATCC25922 using the method described by Antimicrobial Agents and Chemotherapy December 2016 Volume 60 Number 12 pages 7372-7381 and CLSI, 2020. Performance standards for antimicrobial susceptibility testing. Clinical Lab Standards Institute.
(§2) As a follow-on study, the MIC of BCY13246 was measured against a range of bacterial targets and compared with the MIC for the constituent bicyclic peptide ([…]) and carrier peptide ([…]) alone along with existing anti-microbial agents meropenem and levofloxacin. […].

E. coli ATCC BAA-2469 = experiment: MIC follow-on study; assay type: cell-based; conditions: Escherichia coli, ATCCBAA2469
Method: as §1, §2

[1] = tested on: K. pneumoniae ATCC 700603; experiment: MIC follow-on study; assay type: cell-based; conditions: Klebsiella pneumoniae, ATCC700603
Method: as §1, §2

A. baumannii AR0275 = experiment: MIC follow-on study; assay type: cell-based; conditions: Acinetobacter baumannii
Method: as §1, §2

C. freundii AR0116 = experiment: MIC follow-on study; assay type: cell-based; conditions: Citrobacter freundii
Method: as §1, §2

E. cloacae KPC114 = experiment: MIC follow-on study; assay type: cell-based; conditions: Enterobacter cloacae
Method: as §1, §2

E. cloacae AR0032 = experiment: MIC follow-on study; assay type: cell-based; conditions: Enterobacter cloacae
Method: as §1, §2

K. pneumoniae KPNIH1 = experiment: MIC follow-on study; assay type: cell-based; conditions: Klebsiella pneumoniae
Method: as §1, §2

E. cloacae AR0038 = experiment: MIC follow-on study; assay type: cell-based; conditions: Enterobacter cloacae
Method: as §1, §2

E. coli NCTC 13441 = experiment: MIC follow-on study; assay type: cell-based; conditions: Escherichia coli, NCTC13441
Method: as §1, §2

K. pneumoniae B454 = experiment: MIC follow-on study; conditions: Klebsiella pneumoniae
P. aeruginosa ATCC 27853 = experiment: MIC follow-on study; conditions: Pseudomonas aeruginosa, ATCC27853
P. aeruginosa NCTC 13437 = experiment: MIC follow-on study; assay type: cell-based; conditions: Pseudomonas aeruginosa, NCTC13437
Method: as §1, §2

Structure (SMILES) | MIC (P. mirabilis ATCC 43071) [µg/mL] | MIC (E. coli ATCC25922) [µg/mL] | MIC (C. freundii B121) [µg/mL] | MIC (E. coli UTI89) [µg/mL] | MIC (A. baumannii NCTC 12156) [µg/mL] | MIC (K. pneumoniae ATCC 43816) [µg/mL] | MIC (E. cloacae B173) [µg/mL] | MIC (P. mirabilis AR159) [µg/mL] | MIC (E. coli ATCC BAA-2469) [µg/mL] | MIC [1] [µg/mL] | MIC (A. baumannii AR0275) [µg/mL] | MIC (C. freundii AR0116) [µg/mL] | MIC (E. cloacae KPC114) [µg/mL] | MIC (E. cloacae AR0032) [µg/mL] | MIC (K. pneumoniae KPNIH1) [µg/mL] | MIC (E. cloacae AR0038) [µg/mL] | MIC (E. coli NCTC 13441) [µg/mL] | MIC (K. pneumoniae B454) [µg/mL] | MIC (P. aeruginosa ATCC 27853) [µg/mL] | MIC (P. aeruginosa NCTC 13437) [µg/mL]
C[C@H]1COc2c(N3CCN(C)CC3)c(F)cc3c(=O)c(C(=O)O)cn1c23 [Levofloxacin, levofloxacin] | 0.06 (≈ 0.166 µM) | 0.016 (≈ 0.0443 µM) | 0.25 (≈ 0.692 µM) | 0.03 (≈ 0.083 µM) | 0.25 (≈ 0.692 µM) | 0.06 (≈ 0.166 µM) | 0.03 (≈ 0.083 µM) | 2 (≈ 5.53 µM) | > 2 | 0.5 (≈ 1.38 µM) | > 2 | > 2 | 0.5 (≈ 1.38 µM) | 0.5 (≈ 1.38 µM) | > 2 | > 2 | > 2 | > 2 | – | –
C[C@@H](O)[C@H]1C(=O)N2C(C(=O)O)=C(S[C@@H]3CN[C@H](C(=O)N(C)C)C3)[C@H](C)[C@H]12 [Meropenem, meropenem] | 0.06 (≈ 0.156 µM) | 0.016 (≈ 0.0417 µM) | 0.03 (≈ 0.0782 µM) | 0.016 (≈ 0.0417 µM) | 1 (≈ 2.61 µM) | 0.03 (≈ 0.0782 µM) | 0.03 (≈ 0.0782 µM) | > 2 | > 2 | 0.03 (≈ 0.0782 µM) | > 2 | > 2 | > 2 | 0.25 (≈ 0.652 µM) | > 2 | > 2 | 0.016 (≈ 0.0417 µM) | 0.03 (≈ 0.0782 µM) | 0.5 (≈ 1.3 µM) | > 2
